Reference: patent publication US9861640B2, “Medicament for treatment of Alzheimer's disease” (KEMPHYS LTD., priority 2013, dated 2018)

Columns and labels:
APP23 mice = assay: Morris water maze (MWM) test; assay type: in vivo, mouse; settings: 8.5-month-old male APP23 mice; for acquisition of spatial learning (escape latency) in the MWM test: oral Am80 0.5 mg/kg and/or HX630 5 mg/kg for 17 days, vs vehicle-treated APP23 mice
Protocol: Hemizygous APP23 mice, which overexpress human-type AβPP carrying the double mutation K670N/M671L, were produced and bred as previously described. Only male mice were analyzed. Wistar rats were obtained from Kyudo Co., Ltd. (Kumamoto, Japan). Animals were housed in standard mouse cages under standard laboratory conditions: food and water available ad libitum, constant room temperature and humidity, and a 12 h light/12 h dark cycle (light on from 08:00 to 20:00). These animal experiments were conducted according to the guidelines of the Ministry of Education, Culture, Sports, Science, and Technology of Japan, and were approved by the Institutional Animal Care and Use Committee of Kumamoto University (#B25-133).
(§1) APP23 mice begin forming amyloid deposits when they are 6 months old, but memory deficits in the MWM test appear quite early (before 3 months of age). Here, we used 8.5-month-old male APP23 mice and their WT littermates (C57BL/6J). We used stratified random sampling to divide mice (four to six per cage) into four groups to equalize the mean body weight of the study groups: mice given 0.5 mg/kg/d Am80, those given 5 mg/kg/d HX630, those given the mixture of 0.5 mg/kg/d Am80 and 5 mg/kg/d HX630, and those given the vehicle. Am80 and HX630 were suspended in 0.5% (w/v) carboxymethylcellulose solution and were orally administered to mice at 0.5 mg/kg (Am80) or 5 mg/kg (HX630) for 17 consecutive days (once daily at 18:00). Control animals received the same volume of 0.5% (w/v) carboxymethylcellulose solution orally, without the other compounds. […]
The MWM test was performed as described previously. […] During both acquisition and probe trials, the routes of the mice were recorded by means of a computerized video tracking system (CompACT VAS; Muromachi Kikai Co. Ltd., Tokyo, Japan). Training trials measured the time it took for a mouse to find the escape platform. Probe trials determined the percent time spent in each quadrant of the maze. […]

full-length (fl)-APP = assay: Immunoblot of full-length APP in brains of APP23 mice; assay type: in vivo, mouse; settings: 8.5-month-old male APP23 mice; Am80 0.5 and/or HX630 5 mg/kg/d; day 18
Protocol: as §1, with “compounds. We set the 0.5 mg/kg/d dose for Am80 on the basis that this had been found effective in other in vivo studies, such as those by Kawahara et al. and Ishido and Shudo [37]. Higher doses of Am80 (3 mg/kg/d and 6 mg/kg/d) were also orally administered to mice for 17 consecutive days. Animals were weighed once a week. Mice were subjected to behavioral testing on days 15-18 of the first oral administration of the compounds (at 19:00-23:00). On days 15-17 (not day 18), animals received the compounds at 24:00, after behavioral testing.” for “compounds.”

NEP = assay: Immunoblot of NEP in brains of APP23 mice; assay type: in vivo, mouse; settings: Am80 0.5 and/or HX630 5 mg/kg/d, day 18, vs vehicle-treated mice
Protocol: as §1, with “compounds. We set the 0.5 mg/kg/d dose for Am80 on the basis that this had been found effective in other in vivo studies, such as those by Kawahara et al. and Ishido and Shudo [37]. Higher doses of Am80 (3 mg/kg/d and 6 mg/kg/d) were also orally administered to mice for 17 consecutive days. Animals were weighed once a week. Mice were subjected to behavioral testing on days 15-18 of the first oral administration of the compounds (at 19:00-23:00). On days 15-17 (not day 18), animals received the compounds at 24:00, after behavioral testing.” for “compounds.”

RXRs = settings: cited from earlier work
IL-4 = IL-4 sandwich ELISA of hippocampus, correlation with MWM; assay type: in vivo, mouse; settings: APP23 mice; day 18; P=0.096 (HX630), P=0.087 (Am80/HX630)

Structure (SMILES)	acquisition of spatial learning (escape latency) in the MWM test (APP23 mice)	memory deficits in APP23 mice (MWM) (APP23 mice; oral Am80 0.5 mg/kg and/or HX630 5 mg/kg, 17 days)	total amount of full-length (fl)-APP in brain (full-length (fl)-APP)	NEP protein level in brain (immunoblot) (NEP)	binding affinity for RXRs (and RARγ) (RXRs)	hippocampal IL-4 levels (IL-4)
CC1(C)CCC(C)(C)c2cc(NC(=O)c3ccc(C(=O)O)cc3)ccc21 [Am80, 4-{(5,6,7,8-tetrahydro-5,5,8,8-tetramethyl-2-naphthalenyl)carbamoyl}benzoic acid]	No significant difference	did not ameliorate memory deficits	had no effect	Higher levels	little or no binding affinity	–
CN1c2ccccc2N=C(c2ccc(C(=O)O)cc2)c2cc3c(cc21)C(C)(C)CCC3(C)C [HX630, 4-[5H-2,3-(2,5dimethyl-2,5-hexano)-5-methyldibenzo[b,e]-diazepin-11-yl]benzoic acid]	No significant difference	–	had no effect	Higher levels	–	the increase was statistically insignificant
